Reference: US6441027B1, “Method of regulating the female reproductive system through angiogenesis inhibitors” (Children's Medical Center Corporation, priority 1996, dated 2002)
Entries after “also recorded” stand apart in the source; their conditions may differ. Like-named read-outs stand apart in the source and are kept apart here.

Columns and labels:
female C57BL/6 mice = assay: Single dose on E(-1): implantation sites 6 days after mating; assay type: in vivo, mouse; conditions: single dose 30 mg/kg s.c. on E(-1), sacrificed 6 days after mating
Protocol: (§1) FIGS. 7A and 7B show the ovaries and uteri from a control mouse or an AGM-treated mouse given a single dose of AGM-1470 on E(−1). Group housed female C57BL/6 mice were treated with a single injection of AGM-1470 (30 mg/kg, s.c.) and paired with male breeders. Mice who mated on the day after treatment were sacrificed 6 days after mating. Ovaries and uteri were removed en bloc, fixed and stained with hemotoxylin and eosin. […] Thin arrows indicate the corpora lutea.
as §1, with “In addition,” for “FIGS. 7A and 7B show”, “from” for “from a”, “and” for “mouse or an AGM-treated mouse given a”, “treatment mice were examined.” for “dose of AGM-1470 on E(−1).”, “lutea.^1 The fat arrows indicate implantation sites in control not seen in treated animal.” for “lutea.”

inseminated mice = assay: Number of implantation sites after single dose pre-implantation; assay type: in vivo, mouse; conditions: 30 mg/kg on E1, n=16
Protocol: The same procedures were followed as described above in Example 2 to administer 30 mg/kg AGM-1470 in single doses on the specified days. The mice were sacrificed and the number of implantation cites were counted. There was no decrease in the number of implantation cites when AGM-1470 was given on E1 [control mice had 8±0.2 implants (n=29), mice injected with AGM-1470 on E1 had 9±0.4 implants (n=16)].

decidual stromal cells = assay: PCNA staining of decidua on E6; assay type: in vivo, mouse
Protocol: (§2) To test this hypothesis, mice were treated with AGM-1470 on E1 and sacrificed at E6, a time point prior to placental formation. The uteri of the mice were examined by antibodies to Factor VIII and PCNA to determine if there was any difference in the degree of endometrial angiogenesis or the proliferative response of the decidua induced by trophoblast invasion. However, in the decidua there was a 50% decrease in the proliferation of stromal cells in the AGM-1470 treated mice as compared to control (PCNA staining/X630 field in control was 48%±3, n=4, versus 24%±5, n=4, P≦0.005 in AGM-1470 treated mice. See FIG. 4A and 4B). […]
To determine the rate of cellular proliferation, staining for proliferating cell nuclear antigen (PCNA) was performed. […] Positive staining was detected by using horse radish peroxidase-conjugated secondary (Dako) and tertiary (Dako) antibodies, and DAB as a chromagen. The PCNA labeling index was determined by counting the percentage of stained cells under light microscopy within selected 630× fields. A minimum of 1,000 cells were counted for each specimen.
In experiments with AGM-1470 treatment of pregnant mice, transverse sections through embryos contained within the uterus were stained. Microvessels density was determined at the intersite endometrium and PCNA was determined in the decidual stroma. […]

inseminated C57BL/6 mice = assay type: in vivo, mouse
Text: C57BL/6 male and female mice greater than seven weeks old were obtained from Takonic (Germantown, N.Y.). The mice were acclimated for at least five days prior to mating and housed in a twelve hour on and twelve hour off light schedule. The mice were mated in the evenings and vaginal plugs were checked for the next morning. Mating in mice is normally detected by the occurrence of vaginal plugs, which are formed by a mixture of the secretions of the vesicular and coagulating glands of the male and usually fill the vagina from cervix to vulva. The day of plugging was labeled Embryonic day 0 (E0). All animal studies were conducted according to the protocols approved by the Animal Ethics Committee of Children's Hospital. Plugged female mice were randomized and received either AGM-1470 30 mg/kg s.c. or saline on E1, 7, or 14. The dependence of female reproductive system on angiogenesis was examined by treating sexually mature inseminated and cycling mice with selective angiogenesis inhibitor AGM-1470.
Mice were sacrificed on either E6, 9, 13 or 18 (one day prior to term gestation). Fetal viability was assessed and statistical analysis was performed with a Fisher's Exact Test.

[1] = 30 mg/kg s.c. every other day, greater than 100 days of therapy; cited from earlier work
plugged mice = assay: Reversibility: remating after fetal resorption; assay type: in vivo, mouse; conditions: 30 mg/kg on E1 (n=3) or E7 (n=3), remated six weeks after E18 laparotomy
Protocol: To establish long-term safety, the course of recovery of the reproductive system after fetal resorption was studied. Six plugged mice were injected with 30 mg/kg AGM-1470 on E1 (n=3) or E7 (n=3) and then anesthetized on E18 in a methoxyflurane (Pittman-Moore, Mandelein, Ill.) chamber so that a laparotomy could be performed. The uteri were inspected to confirm the presence of resorption cites. The incisions were closed with a running 3-0 ethelon™ black monofilament nylon suture (Ethicon, Somerville; N.J.). Animals were observed until fully recovered. After an additional six weeks the mice were remated to determine their ability to become inseminated and deliver a normal litter. […] Therefore, there is a functional recovery of the uterus after AGM-1470 treatment on E1 or E7.

intersite endometrium = assay: Factor VIII microvessel density of intersite endometrium on E6; assay type: in vivo, mouse
Protocol: as §2
To determine microvessel density, Carnoy's-fixed tissue sections were pretreated with 2 microgram/ml Proteinase K (Boehringer Mannheim, Mannheim, Germany) at 37° Celsius for 15 minutes before staining with a rabbit polyclonal antibody against mouse factor VIII (Dako, Carpinteria, Calif.). Positive staining was detected by incubating sequentially with a secondary antibody against rabbit conjugated to horseradish peroxidase (Dako) and diaminobenzidine tetrahydrochloride (DAB) (Dako) as a chromagen. […] Microvessel density was determined by light microscopy. Each count was expressed as the number of microvessels identified within a selected field. Ten fields per section were counted. […]

[2] = treated on E1, sacrificed E6, n=4

With `CO[C@@H]1[C@H](OC(=O)NC(=O)CCl)CC[C@]2(CO2)[C@H]1[C@@]1(C)O[C@@H]1CC=C(C)C` [AGM-1470, O-chloroacetylcarbamoyl fumagillol] the implantation sites (female C57BL/6 mice) was “prevented implantation; also recorded: not seen in AGM-1470 treated animal”, the “number of implantation sites” value (inseminated mice) was 9±0.4 implants and the “decrease in proliferation of decidual stromal cells vs control” value (decidual stromal cells; treated on E1, sacrificed E6) was 50%. For the same compound, the “PCNA staining/X630 field in decidua” value (decidual stromal cells; [2]) was 24%±5, the “toxicity to the pregnant mothers” value (inseminated C57BL/6 mice; 30 mg/kg single dose) was “no signs of toxicity” and the birth defects (inseminated C57BL/6 mice; drug given to pregnant mice during pregnancy) was “birth defects were not documented”. The “fetal resorption on E18” value (inseminated C57BL/6 mice; single dose 30 mg/kg s.c. on E1 (pre-implantation), n=69 embryos) was 100%, the “fetal resorption on E18” value (inseminated C57BL/6 mice; single dose 30 mg/kg s.c. on E7 (post-implantation), n=36) was 100% and the litters (inseminated C57BL/6 mice; single dose 30 mg/kg s.c. on E14, n=46) was “normal litters”. The “toxicity of dosing schedule” value [1] was “no evident toxicity”, the litters after remating (plugged mice) was “normal litters in all mice” and the “decrease in microvessel density in intersite endometrium vs control” value (intersite endometrium; treated on E1, sacrificed E6) was 52%. The “microvessel density in intersite endometrium” value (intersite endometrium; [2]) was 57±13 vessels/X250 field.
